Results published in US8802137B2, “Sustained release of antiinfectives” (Insmed Incorporated, priority 2002, dated 2014).
Where two headings read alike, the source gives them in different places.

What was measured:
rat alveolar macrophages = settings: in vivo
Excerpt: The basal and stimulated functions of rat alveolar macrophages obtained by lavage were studied with and without administration of liposomal amikacin formulations and compared to various controls.

[1] = Clinical chemical assay (TDX) of aminoglycoside content in tissue of treated infected rats; type: in vivo; settings: Sprague-Dawley, other: intratracheal (IT), 10 mg/rat
Protocol: […] The clinical chemical assay was performed using a TDX instrument while the bioassay was performed by measuring inhibition zones on agar plates embedded with Bacillus subtilis.

[2] = Bioavailability of amikacin from inhaled liposomal amikacin formulations: lung homogenate levels; settings: CD IGS, rat, in vivo, 5 mg/kg
P. aeruginosa PA01 = experiment: In vitro release and activity in Slide-A-Lyzer cartridges, CFU after 24 hrs; type: cell-based; settings: amikacin 50 μg/mL, preliminary experiments
Protocol: An in vitro test of release and activity was performed under conditions similar to the pharmacokinetics in the lung, where it has been previously shown that free antibiotic is cleared on the time scale of a few hours. […] Free drug dialyzes out of the cartridges on the time scale of hours under these conditions. After 24 hrs., the samples were withdrawn from the cartridges and plated to measure CFU.

[3] = set-up: species or system rats; settings: rat, in vivo
Protocol: The binding of aminoglycosides to sputum of CF patients is a concern, particularly if this binding reduces the bioactivity of the antiinfective (Hunt et al., 1995). To determine whether liposomal formulations of amikacin can retain biological activity over a prolonged period of time, normal rats were administered liposomal formulations of amikacin by intratracheal instillation. This was followed by its removal at 2 or 24 hours via a bronchial alveolar lavage (BAL) to determine biological activity. […] Amikacin concentration was determined employing a TDX instrument and biological activity determined using a Mueller Hinton broth dilution assay (Pseudomonas aeruginosa).

[4] = mouse, in vivo, po, 15 mg/kg
[5] = lung homogenate, homogenized rat lungs following the 14 day experiment, read-out: Clinical Assay

| Structure (SMILES) | inflammatory response in the lungs (nitrates and TNF-α in BALF) (rat alveolar macrophages) | concentration at 14 day [1, 5] | concentration at 24 h [2] | reduction of CFUs (P. aeruginosa PA01) | concentration at 14 day ([1]; rat, kidney, kidneys, following the 14 day experiment, read-out: detectable levels of aminoglycoside in the kidneys) | drug in a BAL [3] | detectability of drug in the lung over time [4] |
| --- | --- | --- | --- | --- | --- | --- | --- |
| NCC[C@H](O)C(=O)N[C@@H]1C[C@H](N)[C@@H](O[C@H]2O[C@H](CN)[C@@H](O)[C@H](O)[C@H]2O)[C@H](O)[C@H]1O[C@H]1O[C@H](CO)[C@@H](O)[C@H](N)[C@H]1O [Free amikacin, amikacin] | did not produce a significant acute or delayed inflammatory response | 2000 ng/mL | ~500000 ng/g | only slightly reduced the CFU | – | – | – |
| NC[C@H]1O[C@H](O[C@H]2[C@H](O)[C@@H](O[C@H]3O[C@H](CO)[C@@H](O)[C@H](N)[C@H]3O)[C@H](N)C[C@@H]2N)[C@H](N)C[C@@H]1O [Free tobramycin, tobramycin] | – | 1400 ng/mL | – | – | 100 ng/mL | undetectable | – |
| O=C(O)c1cn(C2CC2)c2cc(N3CCNCC3)c(F)cc2c1=O [free ciprofloxacin, ciprofloxacin] | – | – | – | – | – | – | undetectable in less than two hours |
